Data as given in patent US4492692A, “Cephalosporin derivatives” (Imperial Chemical Industries PLC, priority 1980, dated 1985).
Values after ≈ are worked out from the molar mass of the structure shown.

Legend:
Experiment in all cases: MIC by agar-dilution technique, Jewell and Pearmain agar
Type in all cases: cell-based
E. coli = settings: Escherichia coli, Code No. A8, inoculum ~10^5 CFU
Description: (§1) The results set out in the following Table are illustrative of the biological activity of the compounds of the present invention. […] The following results are those obtained on a standard in vitro test system using Jewell and Pearmain agar medium. The antibacterial activity is described in terms of the minimum inhibitory concentration (MIC) determined by agar-dilution technique with an inoculum size of ~10^5 CFU.

Ent. cloacae = settings: Enterobacter cloacae, Code No. A13, inoculum ~10^5 CFU
Description: as §1

K. aerogenes = settings: Klebsiella aerogenes, Code No. A10, inoculum ~10^5 CFU
Description: as §1

Proteus mirabilis = settings: Code No. A18, inoculum ~10^5 CFU
Description: as §1

Ps. aeruginosa = settings: Pseudomonas aeruginosa, Code No. A21, inoculum ~10^5 CFU
Description: as §1

Salmonella dublin = settings: Salmonella enterica, Code No. A20, inoculum ~10^5 CFU
Description: as §1

Serratia marescens = settings: Code No. A16, inoculum ~10^5 CFU
Description: as §1

Staph. aureus = settings: Staphylococcus aureus, Code No. A6, inoculum ~10^5 CFU
Description: as §1

Strep. pyogenes = settings: Streptococcus pyogenes, Code No. A1, inoculum ~10^5 CFU
Description: as §1

SMILES | MIC (E. coli) | MIC (Ent. cloacae) | MIC (K. aerogenes) | MIC (Proteus mirabilis) | MIC (Ps. aeruginosa) | MIC (Salmonella dublin) | MIC (Serratia marescens) | MIC (Staph. aureus) | MIC (Strep. pyogenes)
CC(=O)OCC1=C(C(=O)O)N2C(=O)[C@@H](Nc3nc(Cc4ccccc4)c[nH]3)[C@H]2SC1 [Example 1, 7-(4-benzylimidazol-2-yl)amino-3-acetoxymethylceph-3-em-4-carboxylic acid] | 0.25 µg/mL (≈ 0.583 µM) | 128 µg/mL (≈ 299 µM) | 1 µg/mL (≈ 2.33 µM) | 32 µg/mL (≈ 74.7 µM) | > 256 µg/mL | 0.5 µg/mL (≈ 1.17 µM) | 64 µg/mL (≈ 149 µM) | 32 µg/mL (≈ 74.7 µM) | –
Cc1nnc(SCC2=C(C(=O)O)N3C(=O)[C@@H](Nc4nc(CCNC(=O)C(F)(F)F)c[nH]4)[C@H]3SC2)s1 [Example 4.2, 7-[4-(2-trifluoroacetylaminoethyl)imidazol-2-yl]amino-3-(2-methyl-1,3,4-thiadiazol-5-yl)thiomethylceph-3-em-4-carboxylic acid] | 0.12 µg/mL (≈ 0.218 µM) | 16 µg/mL (≈ 29.1 µM) | 0.12 µg/mL (≈ 0.218 µM) | 16 µg/mL (≈ 29.1 µM) | > 256 µg/mL | 0.25 µg/mL (≈ 0.455 µM) | 4 µg/mL (≈ 7.28 µM) | 32 µg/mL (≈ 58.2 µM) | 16 µg/mL (≈ 29.1 µM)
C=CCc1c[nH]c(N[C@@H]2C(=O)N3C(C(=O)O)=C(CSc4nnnn4C)CS[C@H]23)n1 [Example 6.1, 7-(4-allylimidazol-2-yl)amino-3-(1-methyl-1H-tetrazol-5-yl)thiomethylceph-3-em-4-carboxylic acid] | 0.016 µg/mL (≈ 0.0368 µM) | 16 µg/mL (≈ 36.8 µM) | 0.03 µg/mL (≈ 0.069 µM) | 2 µg/mL (≈ 4.6 µM) | > 256 µg/mL | 0.016 µg/mL (≈ 0.0368 µM) | 0.25 µg/mL (≈ 0.575 µM) | 32 µg/mL (≈ 73.6 µM) | 8 µg/mL (≈ 18.4 µM)
CNC(=O)OCCCc1c[nH]c(N[C@@H]2C(=O)N3C(C(=O)O)=C(COC(C)=O)CS[C@H]23)n1 [Example 9.2, 7-[4-(3-methylcarbamoyloxypropyl)imidazol-2-yl]amino-3-acetoxymethylceph-3-em-4-carboxylic acid] | 0.03 µg/mL (≈ 0.0662 µM) | 64 µg/mL (≈ 141 µM) | 0.06 µg/mL (≈ 0.132 µM) | 8 µg/mL (≈ 17.6 µM) | > 256 µg/mL | 0.06 µg/mL (≈ 0.132 µM) | 8 µg/mL (≈ 17.6 µM) | 64 µg/mL (≈ 141 µM) | 32 µg/mL (≈ 70.6 µM)
O=C(O)C1=C(CSc2c[nH]nn2)CS[C@@H]2[C@H](Nc3nc(CCNC(=O)C(F)(F)F)c[nH]3)C(=O)N12 [Example 10, 7-[4-(2-trifluoroacetylaminoethyl)imidazol-2-yl]amino-3-(1H-1,2,3-triazol-4-yl)thiomethylceph-3-em-4-carboxylic acid] | 0.03 µg/mL (≈ 0.0579 µM) | 16 µg/mL (≈ 30.9 µM) | 0.06 µg/mL (≈ 0.116 µM) | 2 µg/mL (≈ 3.86 µM) | > 256 µg/mL | 0.016 µg/mL (≈ 0.0309 µM) | 16 µg/mL (≈ 30.9 µM) | 64 µg/mL (≈ 123 µM) | 64 µg/mL (≈ 123 µM)
Cn1nnnc1SCC1=C(C(=O)O)N2C(=O)[C@@H](Nc3nc(CCC#N)c[nH]3)[C@H]2SC1 [Example 16, 7-[4-(2-cyanoethyl)imidazol-2-yl]amino-3-(1-methyl-1H-tetrazol-5-yl)thiomethylceph-3-em-4-carboxylic acid] | 0.016 µg/mL (≈ 0.0358 µM) | 4 µg/mL (≈ 8.94 µM) | 0.06 µg/mL (≈ 0.134 µM) | 1 µg/mL (≈ 2.23 µM) | > 128 µg/mL | 0.008 µg/mL (≈ 0.0179 µM) | 2 µg/mL (≈ 4.47 µM) | 16 µg/mL (≈ 35.8 µM) | 8 µg/mL (≈ 17.9 µM)
O=C(O)C1=C(CSc2c[nH]nn2)CS[C@@H]2[C@H](Nc3nc(CCCNC(=S)NCC(F)(F)F)c[nH]3)C(=O)N12 [Example 80, 7-[4-(3-[3-(2,2,2-trifluoroethyl)thioureido]propyl)imidazol-2-yl]amino-3-(1H-1,2,3-triazol-4-yl)thiomethylceph-3-em-4-carboxylic acid] | 1 µg/mL (≈ 1.73 µM) | 4 µg/mL (≈ 6.92 µM) | 2 µg/mL (≈ 3.46 µM) | 4 µg/mL (≈ 6.92 µM) | > 128 µg/mL | 0.5 µg/mL (≈ 0.866 µM) | 64 µg/mL (≈ 111 µM) | 32 µg/mL (≈ 55.4 µM) | 32 µg/mL (≈ 55.4 µM)
